Test results published in PMC4575030 (PLoS ONE, 2015).

Experiments:
[1] = Terminal plasma and brain concentrations after behavioral testing; type: in vivo, rat
[2] = test system: rat formalin model of pain; assay: Formalin test (formalin-induced flinching); type: in vivo; conditions: for Decrease in formalin flinching: phase 2 (10 to 40 min), percent of vehicle
Procedure: Formalin-induced flinching was measured using the Automated Nociception Analyzer (ANA) (University Anesthesia Research & Development Group, La Jolla, CA). Rats were habituated to the ANA testing chambers for at least 30 minutes prior to the formalin injection. At test time, each rat was removed from the testing chamber and gently wrapped in a towel. 50 μL of 2.5% formalin solution was injected into the dorsal surface of the left hind paw with a 30 gauge needle. A small metal band was then affixed to the plantar side of the injected paw with one drop of super glue. The animal was then unwrapped from the towel, placed back in the testing chamber, and flinching behavior was scored for 40 minutes by the ANA software. While minimized, non-painful paw movement from the natural activity of an alert animal could be erroneously binned by the automated recording system as a nociceptive behavior. These behaviors are not subtracted from the flinching total. […] Total flinching behavior was used as the endpoint of the assay.

naïve rats = assay: Open field activity (basic movement); type: in vivo, rat; conditions: formalin-naïve rats
Procedure: Basic movement was measured using the Photobeam Activity System Open Field (San Diego Instruments, San Diego, CA) equipped with 48 infrared photocell emitters and detectors. Photobeams used to measure vertical movement were positioned 14 cm above the test chamber floor. Each testing chamber was made of Plexiglas (41 x 41 x 36 cm) and was devoid of any bedding. At the beginning of the test session, each animal was placed in a separate testing chamber and the room lights were turned off. Basic movement was measured for 30 minutes.

C-fiber nociceptors = assay: In vivo teased-fiber recording from tibial nerve after CFA, C-fibers; design: species or system rat; conditions: for Heat response threshold of C-fiber nociceptors: n = 9
Procedure: (§1) A total of 55 adult, male, Sprague–Dawley rats (Harlan, Indianapolis, IN) weighing 300–350 g were used for electrophysiology. To ensure that electrophysiology studies were performed on rats with mechanical hyperalgesia, behavioral measures of mechanical hyperalgesia were obtained before and at 24 h after administration of CFA (and just prior to the electrophysiological studies). Mechanical hyperalgesia was assessed by determining the frequency of paw withdrawal evoked by mechanical stimulation using a 26 g Semmes-Weinstein von Frey monofilament (Stoelting, Wood Dale, IL). Rats were placed on an elevated wire mesh platform under individual plastic cages and acclimated to the testing environment for 30 minutes prior to testing. The monofilament was applied to the mid-plantar surface of the hindpaw ten times for 1–2 s each with an inter-stimulus interval of approximately 5–10 s and the paw withdrawal frequency (percent) was determined. Baseline measures were determined for each rat for three consecutive days prior to injection of CFA. Mechanical hyperalgesia was defined as an increase in the paw withdrawal frequency.
Rats were initially anesthetized by intramuscular injection of ketamine (100 mg/kg) and xylazine ([…]). […] Core body temperature was maintained at 37°C using a feedback-controlled heating pad (Harvard Apparatus, Holliston, MA, USA).
Recordings were made from cutaneous afferent fibers of the left tibial nerve using a teased-fiber approach. The tibial nerve was dissected from the surrounding tissue and the overlaying skin was sewn to a metal ring to form a pool that was filled with warm mineral oil. The tibial nerve was placed onto a mirror platform for fine dissection with sharpened fine forceps (Fine Science Tools, Foster City, CA, USA). Teased fibers were placed onto a tungsten wire electrode and action potentials were recorded extracellularly. […] Only fibers with clearly discriminated single action potentials were studied. Responses of individual fibers were analyzed off-line using the Spike2 data analysis program (Cambridge Electronic Design, Cambridge, UK).
Afferent fibers were found by their ongoing spontaneous activity and by mechanically stimulating the plantar surface of the hind paw with the experimenter's finger or von Frey monofilaments. Once a single fiber was identified that was excited by mild pinching but not light touch, its mechanical receptive field was marked on the skin using a felt-tipped pen.
Conduction velocity was determined by electrically stimulating the skin outside the fiber’s receptive field with pin electrodes (200 μs pulse width at 0.5 Hz) to electrically activate the fiber. The fiber was stimulated at 1.5 times its electrical threshold and the conduction latency was measured from the time of the electrical stimulus artifact to the evoked action potential. Conduction distance was determined by measuring the distance from the fiber's receptive field to the recording electrode. Conduction velocity (m/s) was calculated by dividing conduction distance by conduction latency. Fibers were classified as Aδ-fiber nociceptors if they had conduction velocities between 2.4–25.0 m/s and as C-fiber nociceptors if conduction velocity was < 2.4 m/s.
Nociceptors were classified functionally according to their responsiveness to mechanical and heat stimulation. Mechanical stimuli used to classify units included light brushing with the tip of a cotton swab, mildly pinching with a pair of forceps, and application of von Frey filaments. Mechanical response thresholds were determined using a series of von Frey monofilaments and defined as the weight (g) required to evoke at least one action potential when applied to the receptive field for 1–2 s. Heat stimuli were delivered using a feedback-controlled Peltier device (Yale Electronics, New Haven, CT) with a contact area of 1 cm^2. […]

Aδ-fiber nociceptors = assay: In vivo teased-fiber recording from tibial nerve after CFA, Aδ-fibers; design: species or system rat; conditions: i.v. 2.5 mg
Procedure: as §1, with “Mechanical hyperalgesia was defined as an increase in the paw withdrawal frequency.” left out
Recordings were made from cutaneous afferent fibers of the left tibial nerve using a teased-fiber approach. […] Teased fibers were placed onto a tungsten wire electrode and action potentials were recorded extracellularly. […] Responses of individual fibers were analyzed off-line using the Spike2 data analysis program (Cambridge Electronic Design, Cambridge, UK). […]

Nav1.7 = test system: Nav1.7; design: method as in PMID 21634377; conditions: extrapolated; cited from earlier work
[3] = 30 minutes after i.v. injection
[4] = 60 minutes after i.v. injection

For `CC(=O)Nc1cccc(Nc2ncnc(N3CCC(OCc4ccc(OC(F)(F)F)cc4)CC3)n2)c1C` [Compound 52, N-(2-methyl-3-((4-(4-((4-(trifluoromethoxy)benzyl)oxy)-1-piperidinyl)-1,3,5-triazin-2-yl)amino)phenyl)acetamide], the Kp ([1]; brain and plasma, rat, ratio of concentrations measured following the formalin test) was 0.3, the “Effective [plasma]” value ([1]; mean terminal plasma concentration at the lowest effective dose in the rat formalin test) was 1.93 µM and the “Decrease in formalin flinching” value ([2]; 3 mg/kg p.o.) was 9%. The “Decrease in formalin flinching” value ([2]; 10 mg/kg p.o.) was 22%, the “Decrease in formalin flinching” value ([2]; 30 mg/kg p.o.) was 79% and the Analgesic efficacy ([2]; rat formalin model, significant (p < 0.05) decrease in flinching at a dose without a reduction in open field movement that obviated the result) was “Yes”. The “Reduction in formalin flinching, result in words” value ([2]; rat formalin test) was “statistically significant and plasma concentration-dependent reduction in formalin flinching”, the “Behavioral analgesic efficacy in the formalin model, i.v. delivery” value ([2]; same formulation and i.v. route as electrophysiology, data not shown) was “equivalent to morphine” and the “Decrease in basic movement” value (naïve rats; 3 mg/kg p.o.) was 3%. For the same compound, the “Decrease in basic movement” value (naïve rats; 10 mg/kg p.o., negative value = increase) was 11%, the “Decrease in basic movement” value (naïve rats; 30 mg/kg p.o.) was 54% and the “Mean cumulative number of action potentials evoked by all heat stimuli, C-fibers” value (C-fiber nociceptors; [3]) was 19.2 ± 3.6. The “Mean number of action potentials evoked by a suprathreshold mechanical stimulus (250 mN), C-fibers” value (“Mean number of action potentials evoked” below) (C-fiber nociceptors; [3]) was 19.9 ± 5.4, the “Mechanical response threshold of C-fiber nociceptors” value (C-fiber nociceptors; [3]) was 60.4 ± 9.8 mN and the “Heat response threshold of C-fiber nociceptors” value (C-fiber nociceptors; [3]) was 47.0 °C. For the same compound, the “Number of action potentials evoked by heat stimuli, C-fibers” value (C-fiber nociceptors; 30 minutes after i.v. injection, 48°C and 50°C reduced) was “reduced the number of action potentials evoked by heat stimuli”, the “Mean number of action potentials evoked” value (C-fiber nociceptors; [4]) was 11.6 ± 3.2 and the “Mechanical response threshold of C-fiber nociceptors” value (C-fiber nociceptors; [4]) was 60.1 ±9.1 mN. For the same compound, the “Mean cumulative number of action potentials evoked by all heat stimuli, C-fibers” value (C-fiber nociceptors; before injection) was 39.2 ± 6.5, the “Mean number of action potentials evoked” value (C-fiber nociceptors; before injection, n = 8) was 28.9 ± 6.2 and the “Heat response threshold of C-fiber nociceptors” value (C-fiber nociceptors; before injection) was 45.0 °C. The “Mechanical response threshold of C-fiber nociceptors” value (C-fiber nociceptors; before injection, n = 11) was 44.5 ± 7.5 mN, the “Time after beginning the injection at which the rate of ongoing spontaneous activity was significantly decreased” value (C-fiber nociceptors; i.v. 2.5 mg over 15 min, remained decreased until 26 minutes) was ≤ 12 min and the “Spontaneous firing of C-fiber nociceptors, after compound” value (C-fiber nociceptors; one day after CFA, after i.v. 2.5 mg (approximately 8 mg/kg)) was ~0.2 Hz. The “Spontaneous firing of C-fiber nociceptors, before compound” value (C-fiber nociceptors; one day after CFA, before i.v. injection) was “approximately 0.7 Hz”, the “Mechanical response thresholds of Aδ-fiber nociceptors” value (Aδ-fiber nociceptors) was “Neither vehicle nor compound 52 altered” and the “Rate of ongoing spontaneous activity of Aδ-fiber nociceptors” value (Aδ-fiber nociceptors) was “did not reduce the rate of ongoing spontaneous activity”. The “Preference for inactivated versus non-inactivated Nav1.7” value (Nav1.7) was 100 fold.
